Test results published in paper PMC13077603, “Fluorine‐18‐Labeled Nucleotide Analogs Targeting Ecto‐5'‐Nucleotidase (CD73) for Positron Emission Tomography Imaging of Solid Tumors” (Angewandte Chemie (International Ed. in English), 2026).
Where “and” joins values, the source holds several entries; their conditions need not be identical. Equal values may be shown once. Read-outs that look alike come from different tables or passages of the source.

What was measured:
[1] = target: T1, CD73 in human breast cancer samples (Homo sapiens, UniProt P21589); experiment: Autoradiography on human breast tumor and sentinel lymph node cryosections; assay type: binding; conditions: ∼1000‐fold excess of blocker with radiotracer
T1 construct: cryosections of breast tumor samples as well as sentinel lymph node samples were investigated; from tissue; host or cells: primary breast tumors and sentinel lymph nodes of two patients, 6 µm cryosections
T1 sequence (P21589 27-574): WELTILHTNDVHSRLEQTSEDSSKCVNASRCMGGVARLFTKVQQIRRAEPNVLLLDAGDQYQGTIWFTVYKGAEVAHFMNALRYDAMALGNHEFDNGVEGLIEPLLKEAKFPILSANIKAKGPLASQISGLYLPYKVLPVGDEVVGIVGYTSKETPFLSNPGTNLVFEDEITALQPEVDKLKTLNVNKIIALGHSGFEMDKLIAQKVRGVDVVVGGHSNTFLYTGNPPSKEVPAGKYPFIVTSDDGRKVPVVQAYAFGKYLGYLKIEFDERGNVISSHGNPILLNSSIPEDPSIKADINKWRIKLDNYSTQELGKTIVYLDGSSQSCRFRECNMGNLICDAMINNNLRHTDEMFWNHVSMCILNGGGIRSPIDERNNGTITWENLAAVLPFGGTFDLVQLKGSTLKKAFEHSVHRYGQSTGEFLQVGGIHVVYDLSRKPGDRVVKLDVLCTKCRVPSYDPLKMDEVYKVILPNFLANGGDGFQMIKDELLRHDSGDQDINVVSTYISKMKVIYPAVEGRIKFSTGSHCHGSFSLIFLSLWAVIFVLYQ
Description: To test specific radiotracer binding to its target, we performed in situ autoradiography. [^18F]2 was applied onto cryosections of neighboring slides of tumor tissues from primary breast tumors from patient X (Figure 4A) and patient Y (Figure 4B), used for immunohistochemistry and AMPase activity determination. Sentinel LN from patient Y was incubated with [^18F]1 (Figure 4C).
FIGURE 4 Autoradiographic imaging of ^18F‐labeled CD73 tracer binding to tissue samples of breast tumors and sentinel lymph nodes. Primary breast tumor (A, B) and LN cryosections (C) were incubated with [^18F]2 or [^18F]1 in the absence (control) and in the presence of an unlabeled CD73 inhibitor, AMPCP (13) or JMS04‐14 (14), as indicated. The samples were processed for autoradiographic analysis, as described in the materials and methods section. The white dotted lines outline the tissue boundaries. (D). Structures of CD73 inhibitors applied as blockers in this study.
For the assessment of ^18F-labeled CD73 tracer binding to human tissues, cryosections of breast tumor samples as well as sentinel lymph node samples were investigated. Cryosections were thawed and pre-incubated for 15 min at room temperature in 2-[4-(2-hydroxyethyl)piperazin-1-yl]ethanesulfonic acid buffer (HEPES). […] Blocking compounds were prepared according to the molar activity of the radiolabeled tracers [^18F]MRS-4648 and [^18F]PSB-19427 aiming at a 1000-fold excess of the blocking agent. For each tissue sample, neighboring sections were incubated for 20 min at room temperature with a mixture of 50µL of the radiotracer and 50µL of the classical CD73 inhibitor AMPCP (25 nmol, in PBS), or JMS0414 (61 nmol, in HEPES), or HEPES buffer respectively. After incubation, slides were washed three times with PBS and Aqua bidest, mounted on a slide holder for the image acquisition, and covered with protection and scintillation foils. Digital autoradiography measurement of each slide was performed for 60 minutes (Micro Imager, Biospace, France). Acquired data were corrected for radioactive decay in reference to the start of the acquisition as well as the start of the incubation.

[2] = target: T2, CD73 (cell membrane preparations of MDA-MB-231 cells) (Homo sapiens, UniProt P21589); experiment: Kinetic rate index radioligand binding assay, estimation of residence time
T2 construct: endogenous in cells; host or cells: MDA-MB-231 (human triple-negative breast cancer) membrane preparation
T2 sequence (P21589 27-574): T1 sequence (P21589 27-574)
Text: Besides affinity, binding kinetics play a crucial role in determining in vivo tracer performance. The clinical CD73 inhibitor Quemliclustat has been reported to display a very long residence time. We therefore determined the kinetic rate index (KRI) of selected CD73 inhibitors using a radioligand binding assay. […] These comparatively long residence times indicate slow dissociation from the target, which may contribute to the sustained tumor retention of [^18F]1 observed in vivo. Another effect that might play a role is pharmacological inhibition of CD73 by the high concentration of the CD73 inhibitor used for blocking. This will lead to a strong reduction in adenosine concentrations, for example, in blood vessels and other tissues, which may change hemodynamics and drug distribution. […]
Cell membrane preparations of MDA-MB-231 cells were performed as previously described.^[9^] A dual point competition assay (at 20 min and 90 min) using [^3H]PSB-17230 was employed for the determination of kinetic rate index (KRI) in analogy to a published procedure,^[60^] determined at 25°C. The residence times were calculated by linear correlation based on a large database of previously determined KRI values and residence times of analogs.

MDA‐MB‐231 tumor = experiment: PET imaging in MDA-MB-231 breast cancer xenograft model; assay type: in vivo, NSG mice; conditions: MDA‐MB‐231 model
Description: Given the specificity of [^18F]1 and [^18F]2 and the promising in vivo biodistribution profile of [^18F]1, we established a small‐animal human breast tumor xenograft model in NSG mice subcutaneously implanted with MDA‐MB‐231 cells. […] For blocking studies, PSB‐12651 (15, Figure 6) or unlabeled 1 were used.
FIGURE 6 PET imaging data in an MDA‐MB‐231 tumor mouse model. (A). PET images, CT scans, and merged images of [^18F]2 in the MDA‐MB‐231 tumor mouse model 90 min after tracer injection. White arrows mark the tumor positions. (B). Quantitative PET analysis of [^18F]2 uptake: activity concentration of [^18F]2 in muscle and tumor tissues 90 min after tracer injection (left) and respective tumor‐to‐muscle ratio (right, n = 5 tumors). (C). PET‐CT images of [^18F]1 and [^18F]FDG in the MDA‐MB‐231 tumor mouse model, 260 min ([^18F]1), or 75 min ([^18F]FDG) after injection. […] White arrows mark the positions of tumors. (D). Quantitative PET analysis of [^18F]1 uptake: activity concentration of [^18F]1 and [^18F]FDG in muscle and tumor tissues (left) and tumor‐to‐muscle ratios (right) after 260 min. [^18F]1: n = 18 tumors, [^18F]1 plus unlabeled 1 block: n = 8 tumors, [^18F]1 plus compound 15 block: n = 6 tumors, [^18F]FDG: n = 18 tumors E. Ex vivo analysis of [^18F]1 uptake as measured by gamma counter: activity concentrations of [^18F]1 in muscle and tumor tissues after 260 min without and with blocking (left) and tumor‐to‐muscle ratios (right). [^18F]1: n = 6 tumors, [^18F]1 plus unlabeled 1 block: n = 6 tumors, [^18F]1 plus compound 15 block: n = 5 tumors.^# relative to the respective muscle, *relative to [^18F]1 without blocker, relative to the unblocked tumor; *<0.05; **<0.01, ***<0.001,^#<0.05; ^## <0.01, ^###<0.001, <0.05; <0.01, <0.001, ns: non‐significant, unpaired t‐test.
MDA-MB-231 cells were cultivated in DMEM/GlutaMAX, supplemented with 10 % fetal calf serum, 100 U/mL penicillin, and 100 µg/mL streptomycin and L-glutamine to a final concentration of 8 mmol/L. AsPC-1 cells were cultivated in RPMI, supplemented with 10 % fetal calf serum, 100 U/mL penicillin, and 100 µg/mL streptomycin and L-glutamine to a final concentration of 8 mmol/L. 5 x 10^6 MDA-MB-231 or 1x 10^6 AsPC-1 cells were injected subcutaneously into the shoulder region of 7 to 12 weeks old NSG (NOD.Cg-Prkdc^scid Il2rg^tm1Wjl/SzJ) mice (Charles River Laboratories). Two tumors were inoculated per animal, and growth was followed by digital caliper measurements (volume = ½ (length * width^2)).
Adult C57bl/6 (biodistribution study, 19.8±1.3 g) or tumor-bearing NSG mice (22.2±2.2 g) were anesthetized by isoflurane/O2, and one lateral tail vein was cannulated using a 27 G needle. A respective radiotracer (~ 390 kBq/g body weight) was injected as a bolus via the tail vein, and subsequent PET scanning was performed. A ~1000-fold excess of unlabeled JMS0414 (14 for [^18F]MRS-4648 ([^18F]2)), unlabeled PSB-19427 (1), or PSB-12651 (15) (for [^18F]PSB-19427 ([^18F]1)) was injected into a subgroup of tumor-bearing mice 10 min before radiotracer injection in the blocking studies. PET imaging studies were carried out using a submillimeter high resolution (0.7 mm full width at half-maximum) small animal scanner (32 module quadHIDAC, Oxford Positron Systems Ltd., Oxford, UK) with a uniform spatial resolution (<1 mm) over a large cylindrical field (165 mm diameter, 280 mm axial length). […]

What does the source list for `Nc1ncnc2c1ncn2[C@@H]1O[C@H](COP(=O)(O)CP(=O)(O)O)[C@@H](O)[C@H]1O` [AMPCP, reference compound]?
Effect of co-incubated blocker on tissue-associated radioactivity [1]: markedly reduced; residence time [2]: 8.8 min

Which “Effect of co-incubated blocker on tissue-associated radioactivity” value [1] does the source give for `Cn1c(=O)n([C@@H]2O[C@H](COP(=O)(O)CP(=O)(O)O)[C@@H](O)[C@H]2O)cc/c1=N/OCc1ccccc1` [JMS04-14, reference compound] here?
Its value is “markedly reduced”.

With `O=P(O)(O)CP(=O)(O)OC[C@H]1O[C@@H](n2cnc3c(NCc4ccccc4)nc(Cl)nc32)[C@H](O)[C@@H]1O` [PSB-12651, reference compound] as the molecule, how does the “Effect of blocker pre-treatment on tumor-to-muscle ratio of [18F]1” value (MDA‐MB‐231 tumor; ~1000-fold excess injected 10 min before tracer) read?
The value was “markedly reduced”.

And the residence time ([2]; estimated from kinetic rate index, [3H]PSB-17230, 25 °C, read-out: Residence time)?
Its residence time is 31 min.

How did the Tumor-to-muscle ratio (MDA‐MB‐231 tumor; [18F]FDG PET, 75 min after injection) turn out when `O=C[C@H]([18F])[C@@H](O)[C@H](O)[C@H](O)CO` [[^18F]FDG, 2‐deoxy‐2‐[^18F]fluoro‐D‐glucose, reference compound] was run?
Its Tumor-to-muscle ratio is 2.04 ± 1.0 and 2.04.
